Patent publication US9034882B2, “Inhibitors of human immunodeficiency virus replication” (priority 2012, dated 2015)
Where two headings read alike, the source gives them in different places.

Test system: recombinant NL-Rluc virus
Assay: Inhibition of HIV replication (NL-RLuc luciferase reporter virus in MT-2 cells)
Format: cell-based
[1] = Human immunodeficiency virus 1, MT2, 120 h, read-out: Activity

| SMILES | EC50 [1] | EC50 (Human immunodeficiency virus 1, MT2, 120 h, read-out: EC50 μM) | EC50 (read-out: Activity, MT-2 cells infected with NL-RLuc virus, 5 days of incubation, luciferase readout, serum condition not given) |
| --- | --- | --- | --- |
| Cc1nc2cc(-c3cccc(-c4ccccc4F)c3)nn2c(N2CCC3(C)CC3C2)c1[C@H](OC(C)(C)C)C(=O)O (stereo partly drawn) [Example 63, (2S)-2-(tert-Butoxy)-2-(2-(2′-fluoro-[1,1′-biphenyl]-3-yl)-5-methyl-7-(6-methyl-3-azabicyclo[4.1.0]heptan-3-yl)pyrazolo[1,5-a]pyrimidin-6-yl)acetic acid] | 0.1 to 1 µM | – | – |
| Cc1nc2cc(-c3ccccc3)nn2c(N2CCC(F)(F)CC2)c1C(OC(C)(C)C)C(=O)O (centres unmarked) [Example 21] | > 1 µM | – | – |
| Cc1nc2cc(-c3cccc(Oc4ccccc4)c3)nn2c(N2CCC(C)(C)CC2)c1[C@H](OC(C)(C)C)C(=O)O [Example 66, (S)-2-(tert-Butoxy)-2-(7-(4,4-dimethylpiperidin-1-yl)-5-methyl-2-(3-phenoxyphenyl)pyrazolo[1,5-a]pyrimidin-6-yl)acetic acid] | 0.1 to 1 µM | – | – |
| Cc1nc2cc(-c3cccc(-c4ccccc4)c3)nn2c(N2CCC3(C)CC3C2)c1[C@H](OC(C)(C)C)C(=O)O (stereo partly drawn) [Example 62, (2S)-2-(2-([1,1′-Biphenyl]-3-yl)-5-methyl-7-(6-methyl-3-azabicyclo[4.1.0]heptan-3-yl)pyrazolo[1,5-a]pyrimidin-6-yl)-2-(tert-butoxy)acetic acid] | – | 0.42 µM | 0.1 to 1 µM |
